# Results from paper PMC10800100, “DoAP2/ERF89 activated the terpene synthase gene DoPAES in Dendrobium officinale and participated in the synthesis of β-patchoulene” (PeerJ, 2024).
# Biological target: T1, DoPAES (Dendrobium catenatum, UniProt A0A975TQG2)
# T1 sequence (A0A975TQG2 1-550): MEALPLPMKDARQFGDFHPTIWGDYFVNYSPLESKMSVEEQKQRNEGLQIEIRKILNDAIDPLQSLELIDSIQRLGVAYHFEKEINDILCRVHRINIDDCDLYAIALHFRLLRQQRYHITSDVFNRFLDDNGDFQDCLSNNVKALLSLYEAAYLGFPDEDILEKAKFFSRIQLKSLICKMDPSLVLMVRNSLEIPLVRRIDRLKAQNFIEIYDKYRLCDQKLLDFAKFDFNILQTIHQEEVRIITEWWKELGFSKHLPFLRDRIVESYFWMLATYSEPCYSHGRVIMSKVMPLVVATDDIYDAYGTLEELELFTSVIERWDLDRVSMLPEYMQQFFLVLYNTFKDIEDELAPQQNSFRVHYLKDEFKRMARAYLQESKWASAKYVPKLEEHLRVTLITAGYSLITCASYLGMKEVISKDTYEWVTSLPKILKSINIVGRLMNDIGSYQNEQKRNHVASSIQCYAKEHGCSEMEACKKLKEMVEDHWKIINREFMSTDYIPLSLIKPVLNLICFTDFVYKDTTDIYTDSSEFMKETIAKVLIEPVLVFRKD
# Assay: HS-SPME-GC-MS of products formed by crude recombinant protein
# Type: biochemical
# Conditions: 50 mmol/L Tris pH 7.5, 10 mmol/L MgCl2, 10 μmol/L MnCl2, 30 °C, 30 min
structure (smiles),measurement,value
CC(C)=CCC/C(C)=C/CC/C(C)=C/COP(=O)(O)OP(=O)(O)O [FPP],HS-SPME-GC-MS of products formed by crude recombinant protein,The products were then detected by GC-MS after adding substrate FPP.
